The EC50 is the concentration needed to bring the measured effect to its halfway point. As a reminder, the CC50 is the concentration giving 50% cytotoxicity. Broadly, the IC50 is the concentration at which inhibition is half-maximal. In general, Ki refers to the equilibrium dissociation constant of an inhibitor or competing ligand from its target.

Assay [1] concerns the target T1, Endoribonuclease toxin MazF (Escherichia coli K-12, UniProt P0AE70).
T1 sequence (P0AE70 whole entry): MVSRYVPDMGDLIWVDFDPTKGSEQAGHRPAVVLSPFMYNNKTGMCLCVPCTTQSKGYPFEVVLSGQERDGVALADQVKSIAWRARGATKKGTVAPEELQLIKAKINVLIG
The assay is described as follows: activation of MazEF endoribonuclease cleavage – biochemical, fluorescence, single-stranded RNA substrate, uHTS hits, dose response (AID 588481). It counts as functional.

Assay [2] addresses T1, Endoribonuclease toxin MazF. Kind of assay: substrate-only fluorescence increase artefacts – biochemical, single-stranded RNase substrate, counter-screen for MazEF activator project, dose response (AID 588502). The class given is functional.
For assay [3] the target is unchanged. The assay is described as follows: SAR analysis of small molecule activators of the MazEF TA System via a fluorescence-based single-stranded RNase assay counterscreen. [Related pubchem assays (depositor defined):AID504720, AID504743]. The class given is functional. In general terms: Counterscreens check selectivity or assay interference.
Assay [4] shares this target. The assay is described as follows: MazEF toxin-antitoxin RNase activation – biochemical, fluorescence, single-stranded RNA substrate, SAR follow-up (AID 588603). The class given is functional.
The test system of a further assay is MEF. Kind of assay: SAR analysis of small molecule cytotoxicity of MazEF TA System activators in embryonic fibroblast (MEF) cells. [Related pubchem assays (depositor defined):AID504720, AID504743]. It counts as functional. The following applies: Mus musculus.
Assay [5] addresses T2, Insulin-degrading enzyme (Homo sapiens, UniProt P14735).
T2 sequence (P14735 whole entry): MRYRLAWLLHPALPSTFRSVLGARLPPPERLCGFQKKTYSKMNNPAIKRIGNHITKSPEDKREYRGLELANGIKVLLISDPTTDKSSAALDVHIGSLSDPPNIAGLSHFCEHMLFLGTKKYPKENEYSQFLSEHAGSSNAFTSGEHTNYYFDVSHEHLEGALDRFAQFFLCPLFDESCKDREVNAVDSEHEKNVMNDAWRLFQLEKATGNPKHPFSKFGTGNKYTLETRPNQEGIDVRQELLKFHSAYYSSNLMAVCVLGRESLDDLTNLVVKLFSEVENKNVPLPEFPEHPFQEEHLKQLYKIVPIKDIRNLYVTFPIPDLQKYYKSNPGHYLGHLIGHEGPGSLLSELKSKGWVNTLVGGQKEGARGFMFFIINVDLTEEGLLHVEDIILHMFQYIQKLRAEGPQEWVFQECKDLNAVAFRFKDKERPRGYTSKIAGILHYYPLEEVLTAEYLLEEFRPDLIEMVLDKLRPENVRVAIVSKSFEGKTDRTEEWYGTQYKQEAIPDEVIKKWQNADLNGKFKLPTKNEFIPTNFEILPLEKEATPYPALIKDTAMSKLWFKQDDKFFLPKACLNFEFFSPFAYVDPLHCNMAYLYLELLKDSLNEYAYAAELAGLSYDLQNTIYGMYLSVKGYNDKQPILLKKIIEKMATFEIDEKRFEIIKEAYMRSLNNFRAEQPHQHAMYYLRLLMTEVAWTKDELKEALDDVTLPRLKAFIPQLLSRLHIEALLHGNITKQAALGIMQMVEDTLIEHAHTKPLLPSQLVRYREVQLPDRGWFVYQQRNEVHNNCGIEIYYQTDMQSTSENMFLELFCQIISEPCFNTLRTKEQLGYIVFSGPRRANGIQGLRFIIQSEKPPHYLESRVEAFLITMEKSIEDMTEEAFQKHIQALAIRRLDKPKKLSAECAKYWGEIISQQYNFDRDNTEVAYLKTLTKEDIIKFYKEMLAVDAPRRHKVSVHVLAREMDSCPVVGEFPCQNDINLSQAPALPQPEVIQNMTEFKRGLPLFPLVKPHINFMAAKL
Kind of assay: cellular IDE activation of Abeta substrate cleavage – fluorescence polarization, HEK cells, dose response (AID 588439). The class given is functional, cell-based. For orientation: In fluorescence polarisation assays a small probe gives low polarisation when free and higher when bound to something large.

Assay [6] concerns the target T2, Insulin-degrading enzyme. Kind of assay: recombinant IDE activation, cell-free – biochemical, fluorescence polarization, counter-screen for IDE activator project, dose response (AID 588681).
The test system of assay [7] is HEK293. The assay is described as follows: optical interference in Abeta FP readout, dose response, artefact control for IDE activator project, biochemical, fluorescence polarization (AID 588442). The class given is functional, cell-based. Particulars: Homo sapiens.
Assay [8] deals with HEK293. Kind of assay: membrane integrity loss in HEK cells – cell-based, fluorescence, cytotoxicity control for IDE activator project, dose response (AID 588440).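 Also: cytotoxicity by LDH release measuring loss of membrane integrity.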 The following applies: Homo sapiens. The class given is functional.
For the next assay, the system named is Streptococcus. Kind of assay: GAS UMAA2166 growth inhibition – luminescence, BacTiterGlo, counter-screen for streptokinase expression inhibitor project, dose response (AID 1915).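 Also: potency for reduction of bacterial viability or growth.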 It counts as functional, organism-based.
Assay [9] has as its system Streptococcus sp. 'group A'. The assay is described as follows: Streptococcus pyogenes SK(-)GAS viability under kanamycin – luminescence, BacTiterGlo, confirmation, counter-screen for streptokinase expression inhibitor project, dose response (AID 1900). It counts as functional, organism-based.
For the next assay, the target named is Phospholipase A2 (Homo sapiens, UniProt P04054). It counts as functional.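 Also: confirmatory dose-response counterscreen on phospholipase A2, testing hits that came from an ultra-high-throughput screen for ATG4B inhibitors.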
The target in a further assay is Cysteine protease ATG4B (Homo sapiens, UniProt Q9Y4P1). It counts as functional.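 Also: Fluorescence-based dose-response confirmation assay measuring inhibition of ATG4B activity.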
For a further assay, the target named is T3, Streptokinase A (Streptococcus pyogenes serotype M1, UniProt P10520).
T3 sequence (P10520 whole entry): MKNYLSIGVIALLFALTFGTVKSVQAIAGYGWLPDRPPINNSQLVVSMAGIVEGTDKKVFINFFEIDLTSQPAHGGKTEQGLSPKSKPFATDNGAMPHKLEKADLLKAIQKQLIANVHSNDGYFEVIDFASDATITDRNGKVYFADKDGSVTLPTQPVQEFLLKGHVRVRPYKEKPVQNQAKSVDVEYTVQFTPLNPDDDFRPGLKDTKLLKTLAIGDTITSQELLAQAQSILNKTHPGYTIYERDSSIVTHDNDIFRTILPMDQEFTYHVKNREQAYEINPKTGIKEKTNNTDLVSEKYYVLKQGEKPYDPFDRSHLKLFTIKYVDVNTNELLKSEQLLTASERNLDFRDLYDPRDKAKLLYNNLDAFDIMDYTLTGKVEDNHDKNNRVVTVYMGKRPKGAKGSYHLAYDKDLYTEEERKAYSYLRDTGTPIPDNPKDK
Kind of assay: viability-normalized secreted streptokinase activity reduction – plasminogen activation absorbance, OD405, dose response (AID 1914).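 Also: secreted streptokinase activity via plasminogen activation per viability signal from cell pellet.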 It counts as functional, Streptococcus pyogenes M1 GAS.

In assay [10] the target is Protein kinase C delta type (Homo sapiens, UniProt Q05655). It counts as functional.
Assay [11] deals with Casein kinase II subunit alpha (Homo sapiens, UniProt P68400). The class given is functional.
Sequence of Casein kinase II subunit alpha (P68400 whole entry): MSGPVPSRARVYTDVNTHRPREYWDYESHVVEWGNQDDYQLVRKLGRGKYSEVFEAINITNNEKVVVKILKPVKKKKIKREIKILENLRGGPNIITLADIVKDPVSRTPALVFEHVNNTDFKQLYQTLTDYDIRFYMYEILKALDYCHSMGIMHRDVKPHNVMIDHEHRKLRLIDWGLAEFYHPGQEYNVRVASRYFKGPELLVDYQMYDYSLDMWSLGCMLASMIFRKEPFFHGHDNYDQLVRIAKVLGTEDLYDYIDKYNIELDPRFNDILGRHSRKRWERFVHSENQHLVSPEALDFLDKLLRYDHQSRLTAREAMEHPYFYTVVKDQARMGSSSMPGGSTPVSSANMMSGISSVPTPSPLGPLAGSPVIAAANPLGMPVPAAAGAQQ
In assay [12] the target is Cyclin-dependent kinase 2 (Homo sapiens, UniProt P24941). It counts as functional.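 Also: CDK2 measured as one member of a broad kinome profiling panel.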
Assay [13] has as its target Serine/threonine-protein kinase PLK1 (Homo sapiens, UniProt P53350). It counts as functional.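 Also: PLK1 measured as one member of a kinome-wide profiling panel.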
In assay [14] the target is 5'-AMP-activated protein kinase catalytic subunit alpha-1 (Homo sapiens, UniProt Q13131). It counts as functional.
Assay [15] deals with Serine/threonine-protein kinase pim-1 (Homo sapiens, UniProt P11309). The class given is functional.
Sequence of Serine/threonine-protein kinase pim-1 (P11309 whole entry): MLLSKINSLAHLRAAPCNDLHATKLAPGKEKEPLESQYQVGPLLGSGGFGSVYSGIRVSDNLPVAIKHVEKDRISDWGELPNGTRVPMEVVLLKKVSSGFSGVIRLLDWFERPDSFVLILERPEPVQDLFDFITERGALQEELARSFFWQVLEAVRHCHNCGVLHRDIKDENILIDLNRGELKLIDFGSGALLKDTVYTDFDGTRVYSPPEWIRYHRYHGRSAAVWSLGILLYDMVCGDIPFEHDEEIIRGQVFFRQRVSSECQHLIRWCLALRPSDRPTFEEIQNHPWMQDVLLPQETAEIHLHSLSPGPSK
Assay [16] deals with RAC-gamma serine/threonine-protein kinase (Homo sapiens, UniProt Q9Y243). The class given is functional.
For assay [17], the target named is Serine/threonine-protein kinase MRCK alpha (Homo sapiens, UniProt Q5VT25). The class given is functional.
Sequence of Serine/threonine-protein kinase MRCK alpha (Q5VT25 whole entry): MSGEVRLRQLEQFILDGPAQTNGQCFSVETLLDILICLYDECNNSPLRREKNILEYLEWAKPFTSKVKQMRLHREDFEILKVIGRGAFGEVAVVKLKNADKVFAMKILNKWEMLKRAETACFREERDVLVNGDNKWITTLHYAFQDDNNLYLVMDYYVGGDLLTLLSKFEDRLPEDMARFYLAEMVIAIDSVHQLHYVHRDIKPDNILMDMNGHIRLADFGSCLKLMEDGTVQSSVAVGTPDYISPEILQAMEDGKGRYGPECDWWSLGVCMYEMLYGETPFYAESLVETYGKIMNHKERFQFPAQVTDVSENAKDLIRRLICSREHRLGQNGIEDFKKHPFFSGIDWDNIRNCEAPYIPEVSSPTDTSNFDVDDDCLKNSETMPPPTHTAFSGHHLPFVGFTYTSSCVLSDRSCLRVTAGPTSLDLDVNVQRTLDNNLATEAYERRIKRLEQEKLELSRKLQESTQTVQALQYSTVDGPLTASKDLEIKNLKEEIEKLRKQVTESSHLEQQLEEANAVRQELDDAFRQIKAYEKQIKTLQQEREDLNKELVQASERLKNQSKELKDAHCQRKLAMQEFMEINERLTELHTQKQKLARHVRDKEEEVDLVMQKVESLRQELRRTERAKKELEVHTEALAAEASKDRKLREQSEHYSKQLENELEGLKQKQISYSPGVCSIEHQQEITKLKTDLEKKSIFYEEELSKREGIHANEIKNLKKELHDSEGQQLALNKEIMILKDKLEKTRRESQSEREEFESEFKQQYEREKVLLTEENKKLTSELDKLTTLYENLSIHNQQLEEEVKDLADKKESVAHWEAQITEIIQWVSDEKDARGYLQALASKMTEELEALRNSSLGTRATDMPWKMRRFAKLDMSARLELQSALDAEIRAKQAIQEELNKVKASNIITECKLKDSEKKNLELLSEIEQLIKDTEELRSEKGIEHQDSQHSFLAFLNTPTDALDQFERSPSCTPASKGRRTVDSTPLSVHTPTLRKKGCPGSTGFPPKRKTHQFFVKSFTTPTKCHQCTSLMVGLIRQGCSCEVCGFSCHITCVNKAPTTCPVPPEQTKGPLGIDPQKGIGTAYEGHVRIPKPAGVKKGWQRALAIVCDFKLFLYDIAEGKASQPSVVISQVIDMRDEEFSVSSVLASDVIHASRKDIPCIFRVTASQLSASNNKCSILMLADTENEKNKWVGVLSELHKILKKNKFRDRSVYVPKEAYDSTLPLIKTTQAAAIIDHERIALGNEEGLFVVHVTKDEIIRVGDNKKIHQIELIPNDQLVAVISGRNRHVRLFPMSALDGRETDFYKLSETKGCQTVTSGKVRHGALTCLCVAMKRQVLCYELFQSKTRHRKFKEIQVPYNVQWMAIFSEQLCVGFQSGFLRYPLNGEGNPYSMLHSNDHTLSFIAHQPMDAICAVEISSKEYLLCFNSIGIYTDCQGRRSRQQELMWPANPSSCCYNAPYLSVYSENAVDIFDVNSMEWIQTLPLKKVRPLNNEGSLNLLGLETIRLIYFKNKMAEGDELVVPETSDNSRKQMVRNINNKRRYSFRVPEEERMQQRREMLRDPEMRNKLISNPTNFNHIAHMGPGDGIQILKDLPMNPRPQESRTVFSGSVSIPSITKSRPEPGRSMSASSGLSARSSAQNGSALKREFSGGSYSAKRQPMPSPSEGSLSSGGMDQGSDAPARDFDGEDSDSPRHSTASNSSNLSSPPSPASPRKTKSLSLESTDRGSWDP
Assay [18] deals with Serine/threonine-protein kinase Chk1 (Homo sapiens, UniProt O14757). The class given is functional.
Assay [19] concerns the target Serine/threonine-protein kinase PLK3 (Homo sapiens, UniProt Q9H4B4). It counts as functional.
Assay [20] concerns the target Protein kinase C gamma type (Homo sapiens, UniProt P05129). It counts as functional.
In assay [21] the target is MAP kinase-activated protein kinase 2 (Homo sapiens, UniProt P49137). It counts as functional.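 Also: measured as one member of a kinome-wide kinase panel.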
The next assay concerns the target Ephrin type-A receptor 2 (Homo sapiens, UniProt P29317). It counts as functional.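 Also: EPHA2 tested as one member of a kinome-wide kinase panel.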
Assay [22] deals with Cyclin-dependent kinase 1 (Homo sapiens, UniProt P06493). The class given is functional.
Sequence of Cyclin-dependent kinase 1 (P06493 whole entry): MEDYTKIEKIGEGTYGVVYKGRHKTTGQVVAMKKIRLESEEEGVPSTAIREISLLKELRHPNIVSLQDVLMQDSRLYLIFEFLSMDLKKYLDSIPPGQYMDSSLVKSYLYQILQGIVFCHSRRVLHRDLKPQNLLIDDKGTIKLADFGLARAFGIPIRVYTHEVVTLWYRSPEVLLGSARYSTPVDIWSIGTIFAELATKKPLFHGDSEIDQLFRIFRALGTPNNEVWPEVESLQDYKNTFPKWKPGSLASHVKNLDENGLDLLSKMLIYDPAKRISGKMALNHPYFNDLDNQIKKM
The target in assay [23] is Protein kinase C zeta type (Homo sapiens, UniProt Q05513). It counts as functional.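 Also: measured as one member of a broad kinase profiling panel.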
Assay [24] has as its target Serine/threonine-protein kinase Chk2 (Homo sapiens, UniProt O96017). The class given is functional.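 Also: CHEK2 entry within a kinome-wide screening panel.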
The target of assay [25] is RAC-alpha serine/threonine-protein kinase (Homo sapiens, UniProt P31749). It counts as functional.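 Also: AKT1 affinity measured as one member of a kinome-wide kinase profiling panel.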

Structures are written as SMILES. Active and inactive are the calls of the source.

Sequence of Ephrin type-A receptor 2 (P29317 whole entry): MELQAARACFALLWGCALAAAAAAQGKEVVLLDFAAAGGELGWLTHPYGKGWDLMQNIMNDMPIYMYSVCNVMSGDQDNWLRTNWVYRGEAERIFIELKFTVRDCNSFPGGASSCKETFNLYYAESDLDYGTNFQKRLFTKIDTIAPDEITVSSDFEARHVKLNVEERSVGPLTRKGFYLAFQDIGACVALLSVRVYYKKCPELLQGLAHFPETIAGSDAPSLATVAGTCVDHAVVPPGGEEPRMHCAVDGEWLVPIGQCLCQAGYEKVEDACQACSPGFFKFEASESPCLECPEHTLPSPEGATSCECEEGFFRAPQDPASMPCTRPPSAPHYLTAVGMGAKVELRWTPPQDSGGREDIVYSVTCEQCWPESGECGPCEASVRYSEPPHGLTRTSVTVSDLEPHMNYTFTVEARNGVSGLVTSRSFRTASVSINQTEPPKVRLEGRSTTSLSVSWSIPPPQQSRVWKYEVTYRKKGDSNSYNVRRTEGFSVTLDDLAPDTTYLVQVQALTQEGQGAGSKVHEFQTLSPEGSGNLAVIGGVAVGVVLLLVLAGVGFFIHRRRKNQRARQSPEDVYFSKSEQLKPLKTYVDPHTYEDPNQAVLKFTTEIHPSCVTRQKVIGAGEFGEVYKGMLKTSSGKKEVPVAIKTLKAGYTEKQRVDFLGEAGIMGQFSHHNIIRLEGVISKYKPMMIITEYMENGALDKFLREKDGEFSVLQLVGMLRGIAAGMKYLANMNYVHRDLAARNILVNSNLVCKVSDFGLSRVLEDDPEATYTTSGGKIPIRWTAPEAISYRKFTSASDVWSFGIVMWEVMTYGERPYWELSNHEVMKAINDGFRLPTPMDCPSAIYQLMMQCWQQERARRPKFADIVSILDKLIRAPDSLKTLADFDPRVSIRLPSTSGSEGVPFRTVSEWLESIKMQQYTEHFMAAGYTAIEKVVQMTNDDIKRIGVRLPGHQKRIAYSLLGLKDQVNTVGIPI
Sequence of Serine/threonine-protein kinase PLK3 (Q9H4B4 whole entry): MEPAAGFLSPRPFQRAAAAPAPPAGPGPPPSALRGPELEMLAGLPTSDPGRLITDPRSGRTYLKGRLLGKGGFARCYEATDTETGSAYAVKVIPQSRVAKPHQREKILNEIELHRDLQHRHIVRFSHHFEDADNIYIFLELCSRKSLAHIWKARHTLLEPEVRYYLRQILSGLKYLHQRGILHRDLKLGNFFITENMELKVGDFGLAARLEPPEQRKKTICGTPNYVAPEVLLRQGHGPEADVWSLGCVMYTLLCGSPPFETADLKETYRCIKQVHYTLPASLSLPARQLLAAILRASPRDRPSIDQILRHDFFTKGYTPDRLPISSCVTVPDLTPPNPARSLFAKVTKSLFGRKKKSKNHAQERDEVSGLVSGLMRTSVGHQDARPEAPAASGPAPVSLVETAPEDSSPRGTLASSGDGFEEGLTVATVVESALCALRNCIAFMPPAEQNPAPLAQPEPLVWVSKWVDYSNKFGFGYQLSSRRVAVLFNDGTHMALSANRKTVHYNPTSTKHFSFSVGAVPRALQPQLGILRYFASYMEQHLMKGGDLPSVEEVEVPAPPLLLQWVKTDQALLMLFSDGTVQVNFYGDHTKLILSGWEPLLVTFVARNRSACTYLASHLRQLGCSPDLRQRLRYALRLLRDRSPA

On to `Cc1[nH]c2ccccc2c1/C=C/c1nc2ccccc2c(=O)n1-c1ccc([N+](=O)[O-])cc1`, for which the EC50 in [1], in assay [2], in [3] and in [4] was > 99 µM (inactive) in each case. Moreover, in the assay with MEF, the CC50 was > 99 µM (inactive).

`c1ccc(C2CC3CC4(CCCC4)N2O3)cc1` (stereo not drawn): the EC50 on Insulin-degrading enzyme [5] is > 54.7 µM (inactive); on Insulin-degrading enzyme [6], > 54.7 µM (inactive); in the assay on HEK293 [7], > 55.9 µM (inactive). The IC50 with HEK293 [8] was > 89.2 µM (inactive).

As to `CN(C)CCCN(C(=O)COc1ccc(Cl)cc1)c1nc2ccc(F)cc2s1`, the EC50 was > 54.7 µM (inactive) at Insulin-degrading enzyme [5], > 54.7 µM (inactive) on Insulin-degrading enzyme [6] and > 55.9 µM (inactive) in the assay on HEK293 [7]. The IC50 with HEK293 [8] is > 29.7 µM (inactive).

Take `COC(=O)/C=C1\SC(Nc2ccc(Cl)c(Cl)c2)=NC1=O`: the EC50 in the assay with Streptococcus is 16.9 µM (active); in assay [9], 10 µM (active); at Streptokinase A, 15.4 µM (active). The IC50 at Phospholipase A2 is 11 µM (active); at Cysteine protease ATG4B, 16.9 µM (active).

`O=[N+]([O-])c1ccc(S(=O)(=O)N/N=C/c2c[nH]c3ccccc23)cc1`: the EC50 in [3] was > 99 µM (inactive); in assay [4] it was 56.8 µM (inactive). In the assay on MEF, the CC50 was > 99 µM (inactive).

Consider `Cn1ncc2c1CCCC2=O`, for which the Ki in assay [10] is > 20 µM (inactive); in [11], 15.8 µM (active); in assay [12], > 20 µM (inactive); in assay [13] it was 10 µM (active); in assay [14] it was > 25.1 µM (inactive); in assay [15], > 25.1 µM (inactive). The Ki in assay [16] is > 25.1 µM (inactive); in [17] it was > 25.1 µM (inactive); in [18] it was > 20 µM (inactive); in assay [19] it was 2 µM (active); in [20] it was > 20 µM (inactive); in [21], > 20 µM (inactive). Moreover, the Ki at Ephrin type-A receptor 2 is > 20 µM (inactive); in [22] it was > 20 µM (inactive); in assay [23] it was > 20 µM (inactive); in assay [24], > 25.1 µM (inactive); in assay [25], > 20 µM (inactive).

Values taken from ChEMBL document CHEMBL1201862, “PubChem BioAssay data set” (2004).
